Measurements: patent publication US20090181963A1, “3H-[1,2,3]TRIAZOLO[4,5-D]PYRIMIDINE COMPOUNDS, THEIR USE AS mTOR KINASE AND PI3 KINASE INHIBITORS, AND THEIR [sequence]” (Wyeth, priority 2008, published 2009)

Key:
PI3 Kinase α = PI3 Kinase α (Homo sapiens, UniProt P42336); assay: Fluorescence polarization assay for PI3K (PI3 Kinase α); assay type: biochemical; conditions: diC8-PI(4,5)P2 substrate, 25 μM ATP, one hour at 25° C.
PI3 Kinase γ = PI3 Kinase γ (Homo sapiens, UniProt P48736); assay: Fluorescence polarization assay for PI3K (PI3 Kinase γ); assay type: biochemical; conditions: diC8-PI(4,5)P2 substrate, 25 μM ATP, one hour at 25° C.
Sequence of PI3 Kinase γ (P48736 whole entry): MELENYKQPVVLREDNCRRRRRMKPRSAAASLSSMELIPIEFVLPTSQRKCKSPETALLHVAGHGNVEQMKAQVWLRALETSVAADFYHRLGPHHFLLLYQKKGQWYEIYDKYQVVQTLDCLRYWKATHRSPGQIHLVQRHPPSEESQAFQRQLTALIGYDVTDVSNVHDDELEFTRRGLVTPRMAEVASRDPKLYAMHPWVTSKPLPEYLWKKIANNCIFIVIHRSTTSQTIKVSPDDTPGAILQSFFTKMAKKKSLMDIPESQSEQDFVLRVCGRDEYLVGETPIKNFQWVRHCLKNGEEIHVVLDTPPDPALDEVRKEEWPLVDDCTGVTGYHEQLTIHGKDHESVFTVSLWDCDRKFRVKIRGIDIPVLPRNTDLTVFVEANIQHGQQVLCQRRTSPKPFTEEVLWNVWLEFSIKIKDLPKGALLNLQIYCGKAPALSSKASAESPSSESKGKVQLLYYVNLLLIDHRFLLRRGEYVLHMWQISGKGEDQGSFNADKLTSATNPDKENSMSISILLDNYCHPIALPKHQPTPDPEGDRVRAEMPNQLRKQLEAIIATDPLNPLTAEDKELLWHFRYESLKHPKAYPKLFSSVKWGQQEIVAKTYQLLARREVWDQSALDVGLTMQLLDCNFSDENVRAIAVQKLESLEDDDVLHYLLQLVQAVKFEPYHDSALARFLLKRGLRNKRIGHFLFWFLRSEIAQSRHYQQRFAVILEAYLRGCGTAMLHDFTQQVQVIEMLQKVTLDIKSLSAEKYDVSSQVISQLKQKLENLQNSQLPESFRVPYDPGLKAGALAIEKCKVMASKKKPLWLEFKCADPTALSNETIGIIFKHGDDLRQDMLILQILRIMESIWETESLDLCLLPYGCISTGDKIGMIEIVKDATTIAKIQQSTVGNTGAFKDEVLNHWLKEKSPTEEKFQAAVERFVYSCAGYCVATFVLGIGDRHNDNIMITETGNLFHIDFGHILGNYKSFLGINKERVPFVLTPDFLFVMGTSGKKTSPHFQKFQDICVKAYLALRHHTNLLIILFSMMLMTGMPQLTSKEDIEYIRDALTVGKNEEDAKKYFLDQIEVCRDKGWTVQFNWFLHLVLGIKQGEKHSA

Sequence of PI3 Kinase α (P42336 whole entry): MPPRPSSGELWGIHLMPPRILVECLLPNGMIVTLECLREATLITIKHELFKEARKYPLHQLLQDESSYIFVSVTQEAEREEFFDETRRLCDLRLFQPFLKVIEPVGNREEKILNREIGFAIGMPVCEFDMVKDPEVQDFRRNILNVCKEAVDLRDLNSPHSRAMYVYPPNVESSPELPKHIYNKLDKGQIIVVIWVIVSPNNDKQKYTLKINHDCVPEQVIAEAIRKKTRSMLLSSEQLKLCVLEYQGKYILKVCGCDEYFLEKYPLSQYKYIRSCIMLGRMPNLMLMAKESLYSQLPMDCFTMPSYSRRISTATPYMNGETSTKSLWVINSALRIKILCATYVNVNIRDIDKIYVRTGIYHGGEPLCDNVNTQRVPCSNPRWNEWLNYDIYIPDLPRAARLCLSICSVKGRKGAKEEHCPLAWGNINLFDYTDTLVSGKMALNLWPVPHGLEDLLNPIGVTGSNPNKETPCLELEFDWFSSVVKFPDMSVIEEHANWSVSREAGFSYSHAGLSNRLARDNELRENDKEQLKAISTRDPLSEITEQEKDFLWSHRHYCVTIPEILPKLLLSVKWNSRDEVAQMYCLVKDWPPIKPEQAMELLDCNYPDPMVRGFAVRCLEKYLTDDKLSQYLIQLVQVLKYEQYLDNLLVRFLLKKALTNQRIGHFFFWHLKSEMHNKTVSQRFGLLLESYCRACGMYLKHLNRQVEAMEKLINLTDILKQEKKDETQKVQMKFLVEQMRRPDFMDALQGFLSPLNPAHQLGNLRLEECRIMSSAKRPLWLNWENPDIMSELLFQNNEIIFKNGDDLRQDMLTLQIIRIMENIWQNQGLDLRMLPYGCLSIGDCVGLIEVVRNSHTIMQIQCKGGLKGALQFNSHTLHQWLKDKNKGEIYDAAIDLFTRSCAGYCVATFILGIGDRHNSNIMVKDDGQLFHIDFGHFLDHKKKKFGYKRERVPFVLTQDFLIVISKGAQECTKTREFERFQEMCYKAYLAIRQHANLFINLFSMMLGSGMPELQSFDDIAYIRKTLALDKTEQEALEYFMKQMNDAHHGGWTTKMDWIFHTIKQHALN
Sequence of PI3 Kinase α (P27986 whole entry partner): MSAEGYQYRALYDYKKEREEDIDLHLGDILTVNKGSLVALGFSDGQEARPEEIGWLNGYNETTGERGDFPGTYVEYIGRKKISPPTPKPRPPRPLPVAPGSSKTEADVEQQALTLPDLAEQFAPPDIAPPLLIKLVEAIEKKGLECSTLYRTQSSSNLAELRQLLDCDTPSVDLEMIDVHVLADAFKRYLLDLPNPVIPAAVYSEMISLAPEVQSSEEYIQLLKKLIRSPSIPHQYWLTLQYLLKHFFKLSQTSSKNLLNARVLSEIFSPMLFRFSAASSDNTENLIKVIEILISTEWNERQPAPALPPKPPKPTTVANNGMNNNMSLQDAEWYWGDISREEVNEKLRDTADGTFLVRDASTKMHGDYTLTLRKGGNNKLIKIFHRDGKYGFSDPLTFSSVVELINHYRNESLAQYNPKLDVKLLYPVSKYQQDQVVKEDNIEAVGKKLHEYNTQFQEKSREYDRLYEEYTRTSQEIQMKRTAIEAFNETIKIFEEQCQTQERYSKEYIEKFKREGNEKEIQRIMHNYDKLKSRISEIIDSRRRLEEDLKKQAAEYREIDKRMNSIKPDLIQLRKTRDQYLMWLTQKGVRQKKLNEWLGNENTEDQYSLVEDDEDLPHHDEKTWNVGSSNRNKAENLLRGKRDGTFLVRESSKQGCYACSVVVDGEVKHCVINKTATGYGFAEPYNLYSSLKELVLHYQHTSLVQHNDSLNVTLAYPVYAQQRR

| Structure (SMILES) | IC50 (PI3 Kinase α) [nM] | IC50 (PI3 Kinase γ) [nM] |
| --- | --- | --- |
| O=C(O)Cn1nnc2c(N3CCOCC3)nc(-c3cccc(O)c3)nc21 [Example 245, [5-(3-hydroxyphenyl)-7-morpholin-4-yl-3H-[1,2,3]triazolo[4,5-d]pyrimidin-3-yl]acetic acid] | 298 | 1940 |
| CC(C)(C)OC(=O)N1CCN(c2ccc(NC(=O)c3ccc(Cn4nnc5c(N6CCOCC6)nc(-c6cccc(O)c6)nc54)cc3)cc2)CC1 [Example 218, tert-Butyl 4-{4-[(4-{[5-(3-hydroxyphenyl)-7-morpholin-4-yl-3H-[1,2,3]triazolo[4,5-d]pyrimidin-3-yl]methyl}benzoyl)amino]phenyl}piperazine-1-carboxylate] | 71 | 8080 |
| CC(C)n1nnc2c(N3CCOCC3)nc(-c3ccc(N)cc3)nc21 [Example 81, 4-(3-isopropyl-7-morpholin-4-yl-3H-[1,2,3]triazolo[4,5-d]pyrimidin-5-yl)-phenylamine] | 1030 | 4630 |
| CCn1nnc2c(N3CCOCC3)nc(-c3ccc(NC(=O)Nc4cccs4)cc3)nc21 [Example 40, 1-[4-(3-ethyl-7-morpholin-4-yl-3H-[1,2,3]triazolo[4,5-d]pyrimidin-5-yl)phenyl]-3-(2-thienyl)urea] | 2.5 | 11.5 |
| CCn1nnc2c(N3CCOCC3)nc(-c3ccc(NC(=O)OCCc4ccc(N)cc4)cc3)nc21 [Example 38, 2-(4-aminophenyl)ethyl [4-(3-ethyl-7-morpholin-4-yl-3H-[1,2,3]triazolo[4,5-d]pyrimidin-5-yl)phenyl]carbamate] | 341 | 7440 |
| O=C(Nc1cccnc1)c1ccc(Cn2nnc3c(N4CCOCC4)nc(-c4cccc(O)c4)nc32)cc1 [Example 216, 4-{[5-(3-hydroxyphenyl)-7-morpholin-4-yl-3H-[1,2,3]triazolo[4,5-d]pyrimidin-3-yl]methyl}-N-pyridin-3-ylbenzamide] | 58 | 361 |
| c1cc(-c2nc(N3CCOCC3)c3nnn(CCCN4CCCC4)c3n2)c2cn[nH]c2c1 [Example 11, 5-(1H-indazol-4-yl)-7-morpholin-4-yl-3-(3-pyrrolidin-1-ylpropyl)-3H-[1,2,3]triazolo[4,5-d]pyrimidine] | 83 | 132 |
| OCc1cccc(-c2nc(N3CCOCC3)c3nnn(C4CCNCC4)c3n2)c1 [Example 176, [3-(7-morpholin-4-yl-3-piperidin-4-yl-3H-[1,2,3]triazolo[4,5-d]pyrimidin-5-yl)phenyl]methanol] | 23.7 | 164 |
| Oc1cncc(-c2nc(N3CCOCC3)c3nnn(C4CCN(Cc5ccc(F)cc5F)CC4)c3n2)c1 [Example 23, 5-{3-[1-(2,4-difluorobenzyl)piperidin-4-yl]-7-morpholin-4-yl-3H-[1,2,3]triazolo[4,5-d]pyrimidin-5-yl}pyridin-3-ol] | 68 | 44 |
| CN(C)CCNC(=O)Cn1nnc2c(N3CCOCC3)nc(-c3cccc(CO)c3)nc21 [Example 239, N-[2-(dimethylamino)ethyl]-2-{5-[3-(hydroxymethyl)phenyl]-7-morpholin-4-yl-3H-[1,2,3]triazolo[4,5-d]pyrimidin-3-yl}acetamide] | 1130 | 5060 |
| O=C(Nc1ccc(F)cc1)c1ccc(Cn2nnc3c(N4CCOCC4)nc(-c4cccc(O)c4)nc32)cc1 [Example 217, N-(4-fluorophenyl)-4-{[5-(3-hydroxyphenyl)-7-morpholin-4-yl-3H-[1,2,3]triazolo[4,5-d]pyrimidin-3-yl]methyl}benzamide] | 240 | 240 |
| CCN(CC)C(=O)c1ccc(Cn2nnc3c(N4CCOCC4)nc(-c4cccc(O)c4)nc32)cc1 [Example 220, N,N-diethyl-4-{[5-(3-hydroxyphenyl)-7-morpholin-4-yl-3H-[1,2,3]triazolo[4,5-d]pyrimidin-3-yl]methyl}benzamide] | 1150 | 2420 |
| CC(C)CN1CCN(CCn2nnc3c(N4CCOCC4)nc(-c4cccc(O)c4)nc32)CC1 [Example 108, 3-{3-[2-(4-isobutylpiperazin-1-yl)ethyl]-7-morpholin-4-yl-3H-[1,2,3]triazolo[4,5-d]pyrimidin-5-yl}phenol] | 941 | 2770 |

More lines, now with the values ahead:

| IC50 (PI3 Kinase α) [nM] | IC50 (PI3 Kinase γ) [nM] | Structure (SMILES) |
| --- | --- | --- |
| 4.5 | 30 | CCn1nnc2c(N3CCOCC3)nc(-c3ccc(NC(=O)Nc4ccc(C(=O)NCCc5ccccn5)cc4)cc3)nc21 [Example 63, 4-({[4-(3-ethyl-7-morpholin-4-yl-3H-[1,2,3]triazolo[4,5-d]pyrimidin-5-yl)phenyl]carbamoyl}amino)-N-(2-pyridin-2-ylethyl)benzamide] |
| 6 | 13.5 | O=C(Nc1ccncc1)Nc1ccc(-c2nc(N3CCOCC3)c3nnn(C4CC4)c3n2)cc1 [Example 78, 1-(4-(3-cyclopropyl-7-morpholino-3H-[1,2,3]triazolo[4,5-d]pyrimidin-5-yl)phenyl)-3-(pyridin-4-yl)urea] |
| 5630 | 10400 | O=C(Nc1ccc(-c2nc(N3CCOCC3)c3nnn(C4CCN(Cc5ccccc5)CC4)c3n2)cc1)Nc1cccc(Cl)c1 [Example 170, 1-{4-[3-(1-benzylpiperidin-4-yl)-7-morpholin-4-yl-3H-[1,2,3]triazolo[4,5-d]pyrimidin-5-yl]phenyl}-3-(3-chlorophenyl)urea] |
| 13.5 | 69.5 | CC(C)n1nnc2c(N3CCOCC3)nc(-c3ccc(NC(=O)Nc4ccc(F)cc4)cc3)nc21 [Example 87, 1-(4-fluoro-phenyl)-3-[4-(3-isopropyl-7-morpholin-4-yl-3H-[1,2,3]triazolo[4,5-d]pyrimidin-5-yl)-phenyl]-urea] |
| 15.5 | 40 | COc1ccc(NC(=O)Nc2ccc(-c3nc(N4CCOCC4)c4nnn(C(C)C)c4n3)cc2)cc1 [Example 89, 1-(4-methoxy-phenyl)-3-[4-(3-isopropyl-7-morpholin-4-yl-3H-[1,2,3]triazolo[4,5-d]pyrimidin-5-yl)-phenyl]-urea] |
| 2.5 | 14 | CCn1nnc2c(N3CCOCC3)nc(-c3ccc(NC(=O)Nc4ccc(C(=O)N5CCN(c6ccccn6)CC5)cc4)cc3)nc21 [Example 58, 1-[4-(3-ethyl-7-morpholin-4-yl-3H-[1,2,3]triazolo[4,5-d]pyrimidin-5-yl)phenyl]-3-{4-[(4-pyridin-2-ylpiperazin-1-yl)carbonyl]phenyl}urea] |
| 91 | 329 | O=C(Nc1ccccc1)Nc1ccc(-c2nc(N3CCOCC3)c3nnn(CC4CN(Cc5ccccc5)C4)c3n2)cc1 [Example 191, 1-(4-{3-[(1-benzylazetidin-3-yl)methyl]-7-morpholin-4-yl-3H-[1,2,3]triazolo[4,5-d]pyrimidin-5-yl}phenyl)-3-phenylurea] |
| 66 | 220 | O=C(Nc1ccc(Cn2nnc3c(N4CCOCC4)nc(-c4cccc(O)c4)nc32)cc1)c1ccc(Cl)cc1 [Example 197, 4-Chloro-N-(4-{[5-(3-hydroxyphenyl)-7-morpholin-4-yl-3H-[1,2,3]triazolo[4,5-d]pyrimidin-3-yl]methyl}phenyl)benzamide] |
| 104 | 392 | CN(C)CCNC(=O)Nc1ccc(-c2nc(N3CCOCC3)c3nnn(C4CCNCC4)c3n2)cc1 [Example 152, 1-(2-(dimethylamino)ethyl)-3-(4-(7-morpholino-3-(piperidin-4-yl)-3H-[1,2,3]triazolo[4,5-d]pyrimidin-5-yl)phenyl)urea] |
